Results published in patent publication US9808466B2, “Macrocyclic compounds as protein kinase inhibitors” (Fundación Centro Nacional de Investigaciones Oncologicas …, priority 2011, dated 2017).
Like-named read-outs stand apart in the source and are kept apart here.

Assays:
mTOR = target: T1, mTOR (Homo sapiens, UniProt P42345); test: mTOR assay (LanthaScreen kinase activity assay); type: biochemical
T1 construct: purchased Invitrogen PV4754
Experimental: The enzymatic mTOR activity was measured using a LanthaScreen™ kinase activity assay (Invitrogen). The enzyme was purchased from Invitrogen (PV4754), as well as the GFP-labeled substrate (4EBP1-GFP; PV4759) and the Tb-anti-p4EBP1(pThr46) antibody (PV4757). The assay was performed in 50 mM HEPES buffer, pH 7.5, containing 1.5 mM MnCl2, 10 mM MgCl2, 1 mM EGTA, 2.5 mM DTT and 0.01% Tween-20. The concentration of the assay components were the following: 0.24 nM mTOR kinase, 400 nM 4EBP1-GFP, […] and serial dilutions of the compound (inhibitor) to be evaluated. After 1 h incubation at room temperature, 20 mM EDTA was used to stop the reaction and terbium-labeled antibody (4 nM) added to detect phosphorylated product. The antibody associates with the phosphorylated product resulting in an increased TR-FRET value. The TR-FRET value (a dimensionless number) was calculated as the ratio of the acceptor signal (GFP, emission at 520 nm) to the donor signal (terbium, emission at 495 nm). Values were plotted against the inhibitor concentration and fitted to a sigmoid dose-response curve using GraphPad software.

PIM-1 = target: T2, PIM-1 (Homo sapiens, UniProt P11309); test: PIM-1 biochemical assay (ADP Hunter)
T2 construct: histidine tag (C); made in house
Source text: The biochemical assay to measure PIM-1 activity relies on the ADP Hunter assay kit (DiscoveRx Corp., Cat. #90-0077), that determines the amount of ADP as direct product of the kinase enzyme activity.
The enzyme has been expressed and purified in-house as a recombinant human protein with a C-terminal histidine tag. The protein is active and stable.
Assay conditions were as indicated by the kit manufacturers with the following adaptations for the kinase activity step: • Kinase assay buffer and assay volume stay as recommended (15 mM HEPES, pH 7.4, 20 mM NaCl, 1 mM EGTA, 0.02% Tween 20, 10 mM MgCl2 and 0.1 mg/ml bovine γ-globulins/75 μl assay volume) • Incubation time and temperature: 60 min at 30° C. • PIM-1 concentration: 50 pg/μl • ATP concentration: 100 μM • PIM-1 substrate peptide: PIMtide ([…]) (SEQIDNO. 1) • Peptide concentration: 60 μM • Positive control for kinase activity inhibition: 1-10 μM Staurosporine • DMSO concentration have to stay below 2% during the kinase reaction
Assays were performed in either 96 or 384-well plates. The final outcome of the coupled reactions provided by the kit is the release of the fluorescent product Resorufin and has been measured with a multilabel HTS counter VICTOR V (PerkinElmer) using an excitation filter at 544 nm and an emission filter at 580 nm.

PI3K (p110α/p85α) = target: T3, PI3K (p110α/p85α) (Homo sapiens, UniProt P42336); test: PI3K activity assay (ADP Hunter Plus); type: biochemical
T3 construct: purchased Carna Biosciences 07CBS-0402A
Experimental: The kinase activity was measured by using the commercial ADP Hunter™ Plus assay available from DiscoveRx (#33-016), which is a homogeneous assay to measure the accumulation of ADP, a universal product of kinase activity. […] Reaction was carried out for 1 hour at 25° C. Reagent A and B were sequentially added to the wells and plates were incubated for 30 min at 37° C. Fluorescence counts were read in a Victor instrument (Perkin Elmer) with the recommended settings (544 and 580 nm as excitation and emission wavelengths, respectively). Values were normalized against the control activity included for each enzyme (i.e., 100% PI3 kinase activity, without compound). These values were plotted against the inhibitor concentration and were fit to a sigmoid dose-response curve by using the Graphad software.

[1] = read-out: mTOR activity, IC50 (semi-quantitative class)
[2] = read-out: mTOR actual IC50 (in parentheses)
[3] = PIM1, read-out: PIM-1 activity, IC50 (semi-quantitative class)
[4] = read-out: PI3K alpha activity, IC50 (semi-quantitative class)
[5] = read-out: PI3K alpha actual IC50 (in parentheses)
[6] = PIM1, read-out: PIM-1 actual IC50 (in parentheses)
[7] = read-out: mTOR activity (semi-quantitative IC50)
[8] = read-out: PIM-1 activity (semi-quantitative IC50)
[9] = read-out: PI3K alpha activity (semi-quantitative IC50)
[10] = read-out: PIM-1 IC50 (in parentheses)
[11] = read-out: PI3K alpha IC50 (in parentheses)

T2 sequence (P11309 whole entry): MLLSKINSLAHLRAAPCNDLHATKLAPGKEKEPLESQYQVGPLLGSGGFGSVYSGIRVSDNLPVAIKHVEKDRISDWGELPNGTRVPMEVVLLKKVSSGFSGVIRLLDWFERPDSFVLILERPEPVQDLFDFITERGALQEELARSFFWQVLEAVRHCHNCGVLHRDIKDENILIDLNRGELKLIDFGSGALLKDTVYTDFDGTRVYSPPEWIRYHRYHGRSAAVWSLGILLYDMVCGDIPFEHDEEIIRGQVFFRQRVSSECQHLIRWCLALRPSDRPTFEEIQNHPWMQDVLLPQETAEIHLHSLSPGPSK
T3 sequence (P42336 whole entry): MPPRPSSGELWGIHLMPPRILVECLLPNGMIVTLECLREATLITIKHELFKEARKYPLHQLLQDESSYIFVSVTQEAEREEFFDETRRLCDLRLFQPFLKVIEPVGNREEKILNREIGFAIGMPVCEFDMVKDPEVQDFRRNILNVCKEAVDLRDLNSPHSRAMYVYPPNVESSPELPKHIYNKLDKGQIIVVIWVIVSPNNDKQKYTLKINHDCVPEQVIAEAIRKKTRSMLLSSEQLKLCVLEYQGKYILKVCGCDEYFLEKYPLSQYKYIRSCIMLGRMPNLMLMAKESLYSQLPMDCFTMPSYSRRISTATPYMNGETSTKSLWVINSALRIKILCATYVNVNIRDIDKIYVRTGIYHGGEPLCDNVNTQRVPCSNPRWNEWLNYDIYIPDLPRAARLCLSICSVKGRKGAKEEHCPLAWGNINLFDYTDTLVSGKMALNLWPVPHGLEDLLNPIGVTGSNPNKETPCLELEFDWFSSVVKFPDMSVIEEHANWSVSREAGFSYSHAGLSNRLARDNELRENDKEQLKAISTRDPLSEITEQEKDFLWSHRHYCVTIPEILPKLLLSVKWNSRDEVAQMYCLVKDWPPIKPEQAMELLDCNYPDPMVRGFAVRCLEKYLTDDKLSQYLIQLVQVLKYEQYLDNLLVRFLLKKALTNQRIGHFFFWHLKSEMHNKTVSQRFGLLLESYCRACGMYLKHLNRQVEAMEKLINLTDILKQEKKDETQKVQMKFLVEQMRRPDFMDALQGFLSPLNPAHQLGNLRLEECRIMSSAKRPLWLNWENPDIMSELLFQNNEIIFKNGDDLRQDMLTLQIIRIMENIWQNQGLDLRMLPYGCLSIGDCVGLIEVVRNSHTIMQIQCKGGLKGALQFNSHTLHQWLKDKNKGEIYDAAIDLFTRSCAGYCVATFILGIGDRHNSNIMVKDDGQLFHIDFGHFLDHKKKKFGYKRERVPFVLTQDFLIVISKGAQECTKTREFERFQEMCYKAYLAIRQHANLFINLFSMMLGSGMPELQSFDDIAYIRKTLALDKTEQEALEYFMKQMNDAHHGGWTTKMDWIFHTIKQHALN
T3 sequence (P27986 whole entry partner): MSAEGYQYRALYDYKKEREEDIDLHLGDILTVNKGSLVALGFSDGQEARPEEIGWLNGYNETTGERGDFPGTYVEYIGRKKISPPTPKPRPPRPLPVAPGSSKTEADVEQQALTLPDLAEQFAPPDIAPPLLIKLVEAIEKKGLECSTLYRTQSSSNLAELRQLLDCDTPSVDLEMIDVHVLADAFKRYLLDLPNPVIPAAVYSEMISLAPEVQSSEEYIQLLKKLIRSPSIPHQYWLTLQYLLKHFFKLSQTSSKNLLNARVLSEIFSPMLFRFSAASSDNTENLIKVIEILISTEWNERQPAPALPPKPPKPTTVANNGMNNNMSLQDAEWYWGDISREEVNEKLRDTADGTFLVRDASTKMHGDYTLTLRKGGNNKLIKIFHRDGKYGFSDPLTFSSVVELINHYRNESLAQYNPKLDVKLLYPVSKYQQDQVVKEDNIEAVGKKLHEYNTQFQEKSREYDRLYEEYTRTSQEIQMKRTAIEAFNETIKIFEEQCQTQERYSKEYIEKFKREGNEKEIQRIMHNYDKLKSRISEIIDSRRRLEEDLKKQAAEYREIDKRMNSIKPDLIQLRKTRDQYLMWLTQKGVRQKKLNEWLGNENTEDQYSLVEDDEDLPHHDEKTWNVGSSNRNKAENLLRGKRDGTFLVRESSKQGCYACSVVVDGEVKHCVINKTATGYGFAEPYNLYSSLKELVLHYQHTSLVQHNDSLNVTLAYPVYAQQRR
T1 sequence (P42345 1360-2549 limits assumed): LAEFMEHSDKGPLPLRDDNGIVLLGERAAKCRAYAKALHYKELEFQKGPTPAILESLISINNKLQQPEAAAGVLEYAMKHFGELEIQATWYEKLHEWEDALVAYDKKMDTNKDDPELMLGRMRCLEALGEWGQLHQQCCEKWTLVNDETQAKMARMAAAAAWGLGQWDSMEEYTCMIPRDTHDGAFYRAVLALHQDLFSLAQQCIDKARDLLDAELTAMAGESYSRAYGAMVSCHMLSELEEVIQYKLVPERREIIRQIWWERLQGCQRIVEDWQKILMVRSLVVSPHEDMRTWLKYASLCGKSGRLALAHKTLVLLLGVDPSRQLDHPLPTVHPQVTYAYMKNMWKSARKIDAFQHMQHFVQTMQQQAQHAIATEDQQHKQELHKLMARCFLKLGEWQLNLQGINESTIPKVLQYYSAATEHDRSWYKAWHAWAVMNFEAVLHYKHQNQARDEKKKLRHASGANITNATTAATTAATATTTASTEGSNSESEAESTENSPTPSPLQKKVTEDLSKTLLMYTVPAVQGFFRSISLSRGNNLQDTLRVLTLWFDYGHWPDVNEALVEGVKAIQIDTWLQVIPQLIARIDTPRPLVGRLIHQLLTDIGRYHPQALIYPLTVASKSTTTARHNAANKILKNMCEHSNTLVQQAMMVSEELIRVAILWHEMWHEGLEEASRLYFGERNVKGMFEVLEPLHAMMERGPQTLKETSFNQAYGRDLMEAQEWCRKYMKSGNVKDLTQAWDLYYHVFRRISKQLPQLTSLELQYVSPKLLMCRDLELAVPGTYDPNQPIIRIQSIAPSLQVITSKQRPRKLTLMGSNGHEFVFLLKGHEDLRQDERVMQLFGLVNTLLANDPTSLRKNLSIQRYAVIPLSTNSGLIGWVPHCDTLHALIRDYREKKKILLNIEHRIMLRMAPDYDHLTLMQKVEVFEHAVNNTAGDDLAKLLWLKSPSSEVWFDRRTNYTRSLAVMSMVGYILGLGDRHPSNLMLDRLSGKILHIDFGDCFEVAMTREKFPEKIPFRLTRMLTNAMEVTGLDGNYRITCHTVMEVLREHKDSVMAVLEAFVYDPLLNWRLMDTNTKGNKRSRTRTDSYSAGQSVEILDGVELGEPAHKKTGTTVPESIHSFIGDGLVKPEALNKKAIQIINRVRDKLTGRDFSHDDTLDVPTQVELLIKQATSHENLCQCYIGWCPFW

| SMILES | IC50 (mTOR; [1]) | IC50 (PIM-1; [3]) | IC50 (PI3K (p110α/p85α); [4]) | IC50 (PI3K (p110α/p85α); [5]) | also measured |
| --- | --- | --- | --- | --- | --- |
| COc1ncc2cc1NS(=O)(=O)c1cccc(c1)C(=O)NCc1cncc(c1)-c1ccnc3ccc-2cc13 [compound 1] | < 0.1 µM | > 1 µM | < 0.1 µM | 0.002 µM | IC50 (mTOR; [2]): 0.064 µM |
| COc1ncc2cc1NS(=O)(=O)c1cccc(c1)C(=O)NCc1cncc(c1)-c1nc(C)nc3c1SC2=C3 [compound 54] | > 1 µM | > 1 µM | 0.1 to 1 µM |  |  |
| CC(C)Oc1ncc2cc1NS(=O)(=O)c1cccc(c1)C(=O)NCc1cncc(c1)-c1ncnc3c1SC2=C3 [compound 50] | > 1 µM | > 1 µM | > 1 µM |  |  |
| COc1ncc2cc1NS(=O)(=O)c1cccc(c1)C(=O)NC[C@H]1CN(CCO1)c1ncnc3c1SC2=C3 [compound 64] | > 1 µM | 0.1 to 1 µM | > 1 µM |  |  |
| COc1ncc2cc1NS(=O)(=O)c1cccc(c1)C(=O)NC[C@@H]1CN(CCO1)c1ncnc3c1SC2=C3 [compound 66] | > 1 µM | < 0.1 µM | 0.1 to 1 µM |  | IC50 (PIM-1; [6]): 0.088 µM |
| COc1ncc2cc1NS(=O)(=O)c1cccc(c1)C(=O)N[C@@H]1CCCN(C1)c1ncnc3c1SC2=C3 [compound 76] |  | 0.1 to 1 µM | > 1 µM |  |  |
| O=C1NCc2cncc(c2)-c2ccnc3ccc(cc23)-c2cnc(O)c(c2)NS(=O)(=O)c2cccc1c2 [compound 2] | > 1 µM | > 1 µM | 0.1 to 1 µM |  |  |
| COc1ncc2cc1NS(=O)(=O)c1cccc(c1)C(=O)NCCn1cc(cn1)-c1cnc3ccc-2nn13 [compound 18] | < 0.1 µM | > 1 µM | < 0.1 µM | 0.005 µM | IC50 (mTOR; [2]): 0.067 µM |
| COc1ncc2cc1NS(=O)(=O)c1cccc(c1)C(=O)NC[C@H]1CCN(C1)c1ncnc3c1SC2=C3 [compound 87] |  |  |  |  | IC50 (mTOR; [7]): > 1 µM; IC50 (PIM-1; [8]): 0.1 to 1 µM; IC50 (PI3K (p110α/p85α); [9]): > 1 µM |
| COc1ncc2cc1NS(=O)(=O)c1cccc(c1)C(=O)NCCCNc1ncnc3c1SC2=C3 [compound 70] | > 1 µM | 0.1 to 1 µM | > 1 µM |  |  |
| COc1ncc2cc1NS(=O)(=O)c1ccc(F)c(c1)C(=O)NCc1cncc(c1)-c1ncnc3c1SC2=C3 [compound 48] | > 1 µM | < 0.1 µM | < 0.1 µM | 0.048 µM | IC50 (PIM-1; [6]): 0.052 µM |
| COc1ccc2cc1C(=O)NCC1=CC=C(S1)c1ncnc3c1SC(=C3C)c1cnc(OC)c(c1)NS2(=O)=O [compound 100] |  |  |  |  | IC50 (mTOR; [7]): > 1 µM; IC50 (PIM-1; [10]): 0.031 µM; IC50 (PIM-1; [8]): < 0.1 µM; IC50 (PI3K (p110α/p85α); [11]): 0.0033 µM; IC50 (PI3K (p110α/p85α); [9]): < 0.1 µM |
| COc1ncc2cc1NS(=O)(=O)c1cccc(c1)C(=O)NCc1cccc(c1)-c1cnc3sc-2nn13 [compound 17] | 0.1 to 1 µM | > 1 µM | < 0.1 µM | 0.009 µM |  |
| COc1ncc2cc1NS(=O)(=O)c1cccc(c1)C(=O)NC[C@@H]1CCCN(C1)c1ncnc3c1SC2=C3 [compound 84] | > 1 µM | 0.1 to 1 µM | > 1 µM |  |  |
| COc1ncc2cc1NS(=O)(=O)c1cccc(c1)C(=O)NCC1=C(C)C=C(S1)c1ncnc3c1SC2=C3 [compound 88] |  |  |  |  | IC50 (mTOR; [7]): > 1 µM; IC50 (PIM-1; [10]): 0.069 µM; IC50 (PIM-1; [8]): < 0.1 µM; IC50 (PI3K (p110α/p85α); [9]): 0.1 to 1 µM |
| COc1ncc2cc1N(C)S(=O)(=O)c1cccc(c1)C(=O)NCc1cncc(c1)-c1ncnc3c1SC2=C3 [compound 46] | > 1 µM | > 1 µM | > 1 µM |  |  |
| COCCOc1ccc2cc1C(=O)NCC1=CC=C(S1)c1ncnc3c1SC(=C3C)c1cnc(OC)c(c1)NS2(=O)=O [compound 95] |  |  |  |  | IC50 (mTOR; [7]): > 1 µM; IC50 (PIM-1; [8]): 0.1 to 1 µM; IC50 (PI3K (p110α/p85α); [11]): 0.02 µM; IC50 (PI3K (p110α/p85α); [9]): < 0.1 µM |
| COc1ncc2cc1NS(=O)(=O)c1cccc(c1)C(=O)NCCn1cc(cn1)-c1ncnc3c1SC2=C3C [compound 57] | 0.1 to 1 µM | 0.1 to 1 µM | < 0.1 µM | 0.0008 µM |  |

| SMILES | IC50 (mTOR; [1]) | IC50 (PIM-1; [3]) | IC50 (PI3K (p110α/p85α); [4]) | IC50 (PI3K (p110α/p85α); [5]) | also measured |
| --- | --- | --- | --- | --- | --- |
| COc1ncc2cc1NS(=O)(=O)c1cccc(c1)C(=O)Nc1cncc(c1)-c1ncnc3c1SC2=C3 [compound 47] | < 0.1 µM | > 1 µM | < 0.1 µM | 0.099 µM | IC50 (mTOR; [2]): 0.0085 µM |
| COc1ncc2cc1NS(=O)(=O)c1cccc(c1)C(=O)NCc1ccncc1-c1ncnc3c1SC2=C3 [compound 89] |  |  |  |  | IC50 (mTOR; [7]): > 1 µM; IC50 (PIM-1; [8]): > 1 µM; IC50 (PI3K (p110α/p85α); [9]): > 1 µM |
| COc1ncc2cc1NS(=O)(=O)c1cccc(c1)C(=O)NC[C@H]1CCCN(C1)c1ncnc3c1SC2=C3 [compound 83] | > 1 µM | 0.1 to 1 µM | > 1 µM |  |  |
| COc1ncc2cc1NS(=O)(=O)c1cc(c(F)cc1F)C(=O)NCc1cncc(c1)-c1ncnc3c1SC2=C3 [compound 44] | > 1 µM | > 1 µM | 0.1 to 1 µM |  |  |
| COc1ncc2cc1NS(=O)(=O)c1cccc(c1)C(=O)NCc1cccc(c1)-c1cnc3ccc-2nn13 [compound 13] | < 0.1 µM | > 1 µM | < 0.1 µM | 0.0004 µM | IC50 (mTOR; [2]): 0.01 µM |
| COc1ncc2cc1NS(=O)(=O)c1cc(c(F)cc1F)C(=O)NCc1cccc(c1)-c1ccnc3ccc-2cc13 [compound 29] | 0.1 to 1 µM | > 1 µM | < 0.1 µM | 0.006 µM |  |
| COc1ncc2cc1NS(=O)(=O)c1cccc(c1)C(=O)NCCn1cc(cn1)-c1cnn3ccc-2nc13 [compound 26] | < 0.1 µM | > 1 µM | < 0.1 µM | 0.004 µM | IC50 (mTOR; [2]): 0.04 µM |
| COc1ncc2cc1NS(=O)(=O)c1cccc(c1)C(=O)NCC1CCN(CC1)c1ncnc3ccc-2cc13 [compound 32] | < 0.1 µM | > 1 µM | < 0.1 µM | 0.002 µM | IC50 (mTOR; [2]): 0.005 µM |
| COc1ncc2cc1NS(=O)(=O)c1cc(c(F)cc1F)C(=O)NCc1cccc(c1)-c1cnn3ccc-2nc13 [compound 67] | < 0.1 µM | > 1 µM | < 0.1 µM | 0.0005 µM | IC50 (mTOR; [2]): 0.012 µM |
| COc1ncc2cc1NS(=O)(=O)c1cccc(c1)C(=O)NCc1cncc(c1)-c1cnn3ccc-2nc13 [compound 11] | < 0.1 µM | > 1 µM | < 0.1 µM | 0.0004 µM | IC50 (mTOR; [2]): 0.004 µM |
| COc1ncc2cc1NS(=O)(=O)c1cccc(c1)C(=O)NCc1cncc(c1)-c1cnc3sc-2nn13 [compound 8] | > 1 µM | > 1 µM | < 0.1 µM | 0.007 µM |  |
| COc1ncc2cc1NS(=O)(=O)c1cccc(c1)C(=O)NCc1cc(ccc1F)-c1ncnc3c1SC2=C3 [compound 65] | > 1 µM | > 1 µM | 0.1 to 1 µM |  |  |
| O=C1NCc2cncc(c2)-c2ccnc3ccc(cc23)-c2cncc(c2)NS(=O)(=O)c2cccc1c2 [compound 49] | 0.1 to 1 µM | > 1 µM | < 0.1 µM | 0.068 µM |  |
| COc1ncc2cc1NS(=O)(=O)c1cccc(c1)C(=O)NCCn1cc(cn1)-c1nc(C(C)C)nc3c1SC2=C3 [compound 61] | > 1 µM | > 1 µM | > 1 µM |  |  |
| COc1ncc2cc1NS(=O)(=O)c1cccc(c1)C(=O)NCc1cc(ccn1)-c1cnc3sc-2nn13 [compound 96] |  |  |  |  | IC50 (mTOR; [7]): 0.1 to 1 µM; IC50 (PI3K (p110α/p85α); [11]): 0.0088 µM; IC50 (PI3K (p110α/p85α); [9]): < 0.1 µM |
| COc1ncc2cc1NS(=O)(=O)c1cccc(c1)C(=O)NCc1cc(cs1)-c1ncnc3c1SC2=C3 [compound 74] |  | 0.1 to 1 µM | > 1 µM |  |  |
| COc1ncc2cc1NS(=O)(=O)c1cccc(c1)C(=O)N[C@H]1CCCN(C1)c1ncnc3c1SC2=C3 [compound 75] |  | > 1 µM | > 1 µM |  |  |
